# Earlier results as cited in US20030004236A1, “Magnetic resonance imaging agents for detection and delivery of therapeutic agents and detection of physiological substances” (priority 2001, published 2003).
# Settings: thermodynamic stability of the Gd(III) chelate; background section
row,"stability constant (K), also known as formation constant, logK",Compound
1,22.4,O=C([O-])CN(CCN(CC(=O)[O-])CC(=O)[O-])CCN(CC(=O)[O-])CC(=O)[O-].[Gd+3] [Gd(DTPA)^2−]
2,28.5,O=C([O-])CN1CCN(CC(=O)[O-])CCN(CC(=O)O)CCN(CC(=O)[O-])CC1.[Gd+3] [Gd-DOTA]
